{
  "source": "paper PMC9115111",
  "about": "“Metalloprotease Gp63-Targeting Novel Glycoside Exhibits Potential Antileishmanial Activity” (Frontiers in Cellular and Infection Microbiology, 2022)",
  "test_system": "J774.A1 murine macrophage cells",
  "assay": "MTT cell viability assay on macrophages",
  "type": "cell-based",
  "settings": "MTT assay",
  "procedure": "The J774.A1 murine macrophage cells were grown in Roswell Park Memorial Institute (RPMI) 1640 medium in the presence of 10% (v/v) FBS and 100 U/ml penicillin−100 µg/ml streptomycin (Gibco, Invitrogen, Thermo Fisher Scientific, NY, USA) at 37°C (humidified) and 5% CO2. […] Madin–Darby canine kidney (MDCK) cells were obtained from the National Centre for Cell Science, Pune, India. MDCK cells were derived from the kidney tissue of an adult female Cocker Spaniel. These were grown in Dulbecco’s modified Eagle’s minimal essential medium (DMEM) in the presence of 10% (v/v) FBS and 100 U/ml penicillin−100 µg/ml streptomycin (Gibco, Invitrogen, Thermo Fisher Scientific, NY, USA) at 37°C (humidified) and 5% CO2 ([Ayana et al., 2018]; [Shivappagowdar et al., 2021]).\nAll the compounds were dissolved in dimethyl sulfoxide (DMSO) (Sigma-Aldrich) for 1 mM stock solution and were screened against promastigotes at a concentration of 5 µM. For Glycosides (Gly) 2, 6, and 8, a range of concentrations starting from 100 nM to 100 µM were screened against promastigote forms of parasite and mammalian cells. Parasites (AG83 and PKDL strain) treated with amphotericin B (3 µg/ml) (Sigma-Aldrich) were maintained as the positive control.\nTo evaluate the cytotoxic effects of 12 compounds on L. donovani promastigotes, LDH assay was performed. This assay involves the reduction of tetrazolium salts to formazan during LDH-mediated catalysis of lactate to pyruvate, which can be detected at […]. Rate of formazan formation is proportional to the release of LDH through damaged cell membranes. For the preliminary screening, the promastigotes were incubated with 12 compounds at a single concentration of 5 µM for a period of 72 h, and the released LDH was estimated ( Supplementary Figure S1A ). Amphotericin B-treated promastigotes were taken as the positive control. […] Having observed the antileishmanial effect of Gly2 on growth and proliferation of promastigotes, we next investigated the cytotoxicity of Gly2 on mammalian cells (MDCK, J774.1A) through MTT (3-(4, 5-dimethylthiazolyl-2)-2, 5-diphenyltetrazolium bromide) cell viability assay ( Supplementary Figures S1B, C ). […] The CC50 values of Gly2 analog was in the micromolar range. The selectivity index (SI) for the compound was calculated as the ratio between cytotoxicity (CC50) and activity (IC50) against promastigotes ( Table 1 ).",
  "data": [
    {"smiles": "CC(C)CCOC1O[C@H](CO)[C@@H](O)[C@H](O)[C@H]1O", "note": "(stereo partly shown) [Gly2]", "values": [
      {"measurement": "cytotoxicity in macrophage cells", "result": "minimum level of cytotoxicity"}
    ]}
  ]
}
